Publication PMC8901748, “A novel prostaglandin E receptor 4 (EP4) small molecule antagonist induces articular cartilage regeneration” (Cell Discovery, 2022)
Where two headings read alike, the source gives them in different places.

Legend:
[1] = tested on: zebrafish embryos; assay: Zebrafish embryo toxicity assay; parameters: Mortality / Deformities / Hatching: dose or concentration left out as unconfirmed; conditions: for Mortality: zebrafish embryos; for Deformities / Hatching: zebrafish
Method: A breeding stock of zebrafish at the age of 6–24 months is used for egg production. Fertilized eggs were collected and viable eggs were transferred to the 12-well plate at 26 °C. Fertilized eggs between the 4-cell and 128-cell stages be used for the toxicity test, with ten fertilized eggs per concentration and three replicates of each concentration, a total of 30 eggs for each concentration. […] DMSO was added as vehicle control. Hatching, morphological abnormalities and survival were assessed 24 and 72 h of post-fertilization (dpf) in zebrafish exposed to the chemicals.

[2] = tested on: primary articular chondrocytes; assay: Cell viability by CCK-8 assay; format: cell-based, mouse; conditions: 72 h, read-out: IC50 (cell viability, toxicity in chondrocytes)
Method: The cell viability was evaluated by CCK-8 assay (Dojindo Molecular Technologies). Primary chondrocytes were plated in the 96-well plates and treated with the EP4 antagonists or DMSO for 72 h. A total of 10 μl CCK-8 was added to each well, the cells were incubated in the presence of CCK-8 for 2–3 h. The optical density (OD) of each well at 450 nm was recorded on a Microplate Reader (SPECTRA MAX190). The absorbance values were normalized by subtracting blank values of […]. The cell viability (% of control) is calculated as the percentage of (ODtest − ODblank)/(ODcontrol − ODblank). The 50% inhibitory concentration (IC50) was calculated with GraphPad Prism software using the sigmoidal dose-response function.
(§1) ATDC5 cell line was purchased from Riken BioResource Center (Tsukuba, Japan) and grown in a 1:1 mixture of DMEM/F12 medium (Corning, 10-092-CVR) supplemented with 5% fetal bovine serum (Gibco, 10099, USA) and 1% penicillin-streptomycin solution (Life Technologies). Cells were maintained at 37 °C under 5% CO2. Primary chondrocytes were obtained from knee joint cartilage of newborn mice. Knee joints were dissected from the tibia plateau and femoral condyle articular cartilage of mouse pups and digested in 0.1% collagenase type II (Sigma) overnight at 37 °C and chondrocytes were harvested by centrifugation. Primary chondrocytes were cultured at a density of 5 × 10^3 cells per ml at 37 °C with 5% CO2. DMEM/F12 medium with 10% fetal bovine serum (FBS) and 1% penicillin–streptomycin was used to culture the primary chondrocytes. Chondrogenic differentiation were induced with chondrogenic medium, which contains insulin-transferrin-selenium (ITS) (Sigma, I3146), 10 ng/ml TGF-β3 (PEPROTECH, 100-36E, USA), 100 nM Dexamethasone (Sigma, D4902), 50 μg/ml VC (Sigma), 1 mM sodium pyruvate (Sigma) and 40 μg/ml proline (Sigma), and/or treatment with rmIL-1β (R&D, 401-ML/CF), TNFα (PEPROTECH, 300-01A-50) in DMEM/F12 for indicated days. Western blotting was performed according to standard protocols. Antibodies used were: rabbit anti-Mmp3 (1:1000, HuaBio), rabbit anti-Mmp13 (1:500, abcam, ab39012), rabbit anti-p-CREB (1:2000, Cell Signaling Technology, 87G3), rabbit anti-CREB (1:2000, Cell Signaling Technology, 48H2), mouse anti-GAPDH (1:5000; Sigma-Aldrich, G8795), rabbit anti-Col2 (Abcam, Ab34712), rabbit anti-STAT3 (1:2000; Abcam, ab68153), rabbit anti-p-STAT3 (Y705) (1:2000; Abcam, ab76315), rabbit anti -p65 (1:1000; CST, 3034), rabbit anti-p-p65 (1:1000; CST, 3033), and rabbit anti-IκBα (1:1000; Abways, CY5026).

[3] = tested on: Sox9 promoter-Luc in ATDC5 cells; assay: Sox9 promoter-Luc luciferase reporter assay; format: cell-based, mouse; conditions: 10 μM H89, 30 μM HL-43, 6 h
Method: (§2) Six firefly luciferase reporters were used in the Luciferase assay, including CRE-Luc (PathDetect CRE cis-Reporting System; Stratagene, La Jolla CA) driven by a basic promoter (TATA box) plus four repeats of CRE; Sox9 promoter-Luc contains human SOX9 proximal promoter region (−1034 bp to +67 bp)[45]; 4 × 48-p89-Luc, mouse Col2a1 minimal promoter. AP-1-Luc, Nf-κb-Luc, STAT-Luc were obtained from Stratagene. Chondrocytes were cultured in 24-well plates and 300 ng firefly luciferase reporter constructs were transiently transfected using transfection reagent TransExellent-DNA (Cenji Biotech Inc, China) following manufacturer’s instruction, and 15 ng of the Copia-Renilla luciferase reporter was co-transfected as a normalization control. Cells were treated with the indicated reagents for 48 h after transfection. The Dual-Luciferase measurements were performed in triplicate using the Luciferase assay kit (Promega) and a LUMIstar Omega luminometer (BMG Labtech, Mornington, Australia).

[4] = tested on: CRE-Luc in ATDC5 cells; assay: CRE-Luc luciferase reporter assay; format: cell-based, mouse; conditions: 10 μM H89, 30 μM HL-43, 2 ng/ml IL-1β, 6 h
Method: as §2, with “Cells were treated with the indicated reagents for 48 h after transfection.” left out

[5] = tested on: Col2a1, Acan, Mmp3, Mmp9, Mmp13 expression in primary mouse chondrocytes; assay: qRT-PCR of anabolic and catabolic factors in primary chondrocytes; format: cell-based; conditions: primary murine chondrocytes, 1 ng/ml IL-1β, 24 hr
Method: as §1
Quantitative RT-PCR was performed to measure the relative mRNA levels. RNA samples were prepared from the chondrocytes using Trizol (Takara). cDNA was generated using the Prime Script RT reverse transcriptase kit (Yeasen, Drr036a). Primers used for amplification were shown in Supplementary Table S1, GAPDH was used as the house keeping gene.

[6] = Preliminary pharmacokinetic studies in CD1 mice; format: in vivo
Method: To evaluate the preclinical pharmacokinetic (PK) profiles of compound HL-43 and HL-66, 36 male CD1 mice were randomly divided into four groups for PK studies. […] Blood samples were collected at 0.083, 0.25, 0.5, 1, 2, 4, 8, 12, and 24 h after administration (n = 3). Then the whole blood was centrifuged at 5500 × g for 15 min at 4 °C. After suitable sample preparation, the concentration of HL-43 and HL-66 in plasma sample was determined by Agilent HPLC-MS/MS system (Agilent Technologies, USA). Pharmacokinetic parameters were calculated by WinNonlin software version 7.0 based on non-compartmental analysis (Pharsight Corporation, Mountain View, USA). Mean plasma concentration-time curves were plotted by GraphPad Prism 7.0 (GraphPad Software Inc., CA, USA).

In the case of Cc1ccc(-c2cc(C(F)(F)F)nn2-c2ccc(S(N)(=O)=O)cc2)cc1 [Celecoxib], the Mortality ([1]; 24hpf, 0.03, n=30) is reported as 0/30, the Mortality ([1]; 24hpf, 0.1, n=30) is reported as 7/30 and the Mortality ([1]; 24hpf, 0.3, n=30) is reported as 12/30. For the same compound, the Mortality ([1]; 24hpf, 1, n=30) was 18/30, the Deformities ([1]; 72hpf, 0.03, n=30) was 4/30 and the Hatching ([1]; 72hpf, 0.03, n=30) was 12/30. For the same compound, the Deformities ([1]; 72hpf, 0.1, n=30) was 3/30, the Hatching ([1]; 72hpf, 0.1, n=30) was 8/30 and the Deformities ([1]; 72hpf, 0.3, n=30) was 7/30. The Hatching ([1]; 72hpf, 0.3, n=30) was 13/30, the Deformities ([1]; 72hpf, 1, n=30) was 2/30 and the Hatching ([1]; 72hpf, 1, n=30) was 3/30. For the same compound, the IC50 ([2]; Mus musculus, Chondrocyte) was 34.7 µM.
In the case of O=S(=O)(NCCNC/C=C/c1ccc(Br)cc1)c1cccc2cnccc12 [H89, reference compound], the “HL-43-induced Sox9 promoter luciferase reporter activity” value [3] is reported as “completely abolished” and the “HL-43-induced CRE luciferase reporter activity” value [4] is reported as “completely abolished”.
In the case of Cc1ccc(-c2nnn(CCOc3ccc(F)cc3)c2C(=O)N[C@@H](C)c2ccc(C(=O)O)cc2)o1 [HL-66], the “Col2a1 expression (screen of EP4 antagonists)” value ([5]; EP4 antagonists (2 nM)) is reported as “highest potency in inducing Col2a1 expression”, the “Mmp3 expression (screen of EP4 antagonists)” value ([5]; EP4 antagonists (30 μM)) is reported as “reducing Mmp3 expression” and the “AUC0-∞” value ([6]; I.V. (5 mg/kg)) is reported as 1236.5 ng·h/mL. For the same compound, the C0 ([6]; I.V. (5 mg/kg)) was 2557.7 ng/mL, the CL ([6]; I.V. (5 mg/kg)) was 13 mL/min/kg and the Vd ([6]; I.V. (5 mg/kg)) was 3.7 L/kg. The t1/2 ([6]; I.V. (5 mg/kg)) was 3.2 h, the “AUC0-∞” value ([6]; P.O. (1 mg/kg)) was 672.5 ng·h/mL and the CL ([6]; P.O. (1 mg/kg)) was 123 mL/min/kg. The Cmax ([6]; P.O. (1 mg/kg)) was 286.0 ng/mL, the Vd ([6]; P.O. (1 mg/kg)) was 26.7 L/kg and the t1/2 ([6]; P.O. (1 mg/kg)) was 2.5 h. It also gave a Bioavailability ([6]; oral) of 10.9% and an IC50 [2] of 330 µM.
